Assay results published in patent US11931327B2, “Drug for retinal degenerative disease associated with photoreceptor degeneration” (Daiichi Sankyo Company, Limited, priority 2017, dated 2024).

Columns and labels:
[1] = tested on: transgenic zebrafish Tg (rho: NTR-NanoLuc, my17: DsRed2); test: animal or person
Source text: First, the present inventors constructed a model for evaluating induction of rod cell regeneration. […] Transgenic zebrafish Tg (rho: NTR-NanoLuc, my17: DsRed2), in which a fluorescent protein, DsRed2, which is cardiac-tissue specifically expressed by cardiomyocyte-specific my17 promoter, can be simply detected by using dsRed2 as a marker under a fluorescence stereomicroscope. In the transgenic zebrafish, in addition to cardiac tissue specific expression of DsRed2, a reductase, i.e., nitroreductase (NTR), and a photoprotein, i.e., NanoLuc fusion protein (NTR-NanoLuc), are expressed by a rod-cell specific rho promoter, in a rod-cell specific manner. […] However, if, a prodrug, metronidazole, is added, non-toxic metronidazole is converted to a toxic radical by NTR. […] After rod cells are ablated by treatment with metronidazole, the transgenic zebrafish were washed with rearing water to remove the toxic radical. […] In the transgenic zebrafish, rod cells can be quantitatively determined by measuring the amount of luminescence derived from rod-cell-specific NanoLuc expression. After the rod cells are ablated, the transgenic zebrafish are exposed to a test compound. The activity of the test compound to induce rod-cell regeneration can be quantitatively evaluated by measuring the amount of luminescence derived from NanoLuc and specific to rod cells.
1) On the day before collection of eggs, a pair of male and female zebrafish, i.e., a transgenic fish Tg (rho: NTR-NanoLuc, my17: DsRed2) and a wild type, were placed in a tank for mating and isolated by a divider.
2) The next morning (8:00-11:00), the divider was removed to allow them to mate with each other. Fertilized eggs were collected. In the evening (16:00-18:00) of the same day, only normally developed fertilized eggs were screened and raised in a plate for growth.
3) Day 3 after fertilization, juvenile fish were transferred to rearing water, which contained 10 mM metronidazole (Sigma-Aldrich, Japan) and 1% DMSO (Wako Pure Chemical Industries Ltd.), (prepared by dissolving 60 mg of instant ocean (Napco Limited (Japan)) in 1 L of distilled water), and raised in dark conditions for 24 hours. In this manner, ablation was specifically applied to the rod cells of the juvenile fish. In contrast, non-ablated juvenile fish, which were to be used as a control, were transferred to a tank containing rearing water, which contained a 1% DMSO solution, and raised.
5) Ablated juvenile fish of 4 days after fertilization were washed well with Egg water and dispensed in wells of the assay plate containing a compound together with 100 μL of Egg water, such that 2 juvenile fish individuals were present per well.
6) After the juvenile fish were raised for 2 days, […] of Egg water was removed and ethyl 3-aminobenzoate methanesulfonate (Sigma-Aldrich Japan; 0.4 mg/mL, 10 μL) was added to euthanize the fish.
7) Nano-Glo (registered trademark) Luciferase assay Substrate (Promega Corporation) was added to Nano-Glo (registered trademark) Luciferase assay buffer (Promega Corporation) in a ratio of 1:50 and 100 μL of the resultant solution was added to each of the wells.
8) Shaking was carried out by use of BIO-Mixer (Biotech Japan Co., Ltd.) for one hour and luminescence of NanoLuc (registered trademark) was measured by use of EnVision (PerkinElmer Co., Ltd., Japan).
Individual concentration groups were compared to the DMSO control group by the Dunnett's test.

[2] = tested on: Pathological zebrafish 1: Tg (rho: EGFP) crossed with Tg (rho: hRHO (Q344X), omp: EGFP); test: Rod-cell regeneration effect in retinitis pigmentosa model, EGFP observed by confocal laser microscope; assay type: in vivo; conditions: 1 μM; fish raised 2 days with compound; FIG. 6
Protocol: Pathological model fish, in which rod-cell regeneration can be observed, were prepared using zebrafish known as a retinitis pigmentosa model. The effect of a compound was confirmed in accordance with the following procedure. As the compound to be evaluated, TTNPB (Sigma-Aldrich, Cat. No. T3757-10MG), was used.
1) To prepare a pathological model, in which rod-cell regeneration can be observed, zebrafish Tg (rho: EGFP) (Hamaoka T1, Takechi M, Chinen A et al., Visualization of rod photoreceptor development using GFP-transgenic zebrafish. Genesis. 2002; 34 (3): 215-220.; used as a reporter fish of rod cells) were crossed with zebrafish Tg (rho: hRHO (Q344X), omp: EGFP), which is a name under another nomenclature system of a retinitis pigmentosa model, i.e., zebrafish RH1: hRhodopsin (Q344X) (Nakao T, Tsujikawa M, Notomi S, Ikeda Y, Nishida K., “The role of mislocalized phototransduction in photoreceptor cell death of retinitis pigmentosa.”, PLoS One., 2012; 7 (4): e32472). The zebrafish obtained were specified as zebrafish (Pathological zebrafish 1). Control zebrafish (non-pathological zebrafish) were obtained by crossing zebrafish Tg (rho: EGFP) with wild-type zebrafish. […]
Luminescence of EGFP specifically expressed in rod cells was observed by a confocal laser microscope in the following procedure. […]

[3] = tested on: pathological zebrafish 2: Tg (rho: NTR-NanoLuc, my17: DsRed2) crossed with Tg (rho: hRHO (Q344X), omp: EGFP); test: Rod-cell regeneration effect in retinitis pigmentosa model, quantitative evaluation by NanoLuc luminescence; assay type: in vivo; conditions: N=8 per concentration; Dunnett's test; FIG. 7
Protocol: Pathological model zebrafish, in which rod-cell regeneration can be quantitatively evaluated, were newly prepared using zebrafish known as a retinitis pigmentosa model. The effect of compounds was quantitatively verified in accordance with the following procedure.
1) Quantitative evaluation of rod-cell regeneration was carried out by zebrafish (pathological zebrafish 2) obtained by crossing transgenic Tg (rho: NTR-NanoLuc, my17: DsRed2) and Tg (rho: hRHO (Q344X), omp: EGFP).
Fertilized eggs were collected.
A screening test was repeated 8 times (N=8) at each concentration.
2) After shaking for one hour using BIO-Mixer, the luminescence from NanoLuc (registered trademark) was measured by use of EnVision.

## C/C(=C\c1ccc(C(=O)O)cc1)c1ccc2c(c1)C(C)(C)CCC2(C)C [TTNPB, 4-[(E)-2-(5,6,7,8-tetrahydro-5,5,8,8-tetramethyl-2-naphthalenyl)-1-propenyl]benzoic acid]
[1]; Examples 3 and 4, TTNPB 0.3, 1, 3, 10 and 30 μM, N=4, RA and BMS493 N=8, Dunnett's test
  rod-cell regeneration induction activity compared to the DMSO control: statistically significant rod-cell regeneration induction activity at all concentrations
[1]; minimum concentration tested, range 0.3-30 μM
  concentration at which the medicinal effect already reached saturation: ≤ 0.3 µM
[1]; screening, 2.5 μM, relative to average of DMSO control = 100
  Activation (%): ≥ 150%
[2]
  number of rod cells compared to pathological fish untreated with drug: Recovery in the number of rod cells was confirmed
[3]
  regeneration of rod cells in the retinitis pigmentosa model (luminescence, words): statistically significant regeneration of rod cells in a dose dependent manner
